Test results published in patent US20240002405A1, “ANTIMICROBIAL COMPOUNDS, SYNTHESIS METHODS, AND USES THEREOF” (Ankh Life Sciences Limited, priority 2022, published 2024).
In brackets after ≈: the same amount, converted by molar mass. Several values for one entry are separate records, joined by “and”; a condition that tells them apart may be missing. Equal entries are not always repeated. Where two headings read alike, the source gives them in different places.

Columns and labels:
[1] = tested on: E. faecalis (ATCC 29212); assay: Minimum bactericidal concentration (MBC) assay, E. faecalis; type: cell-based, Enterococcus faecalis; settings: for MBC: Enterococcus faecalis, ATCC29212
Procedure: (§1) (f) Determination of MBC: MBC was determined by sampling all the macroscopically clear wells. Before sampling, the wells were gently mixed by flushing them with a pipette, and a 5 μL was removed and placed on an agar plate suitable for the growth of the microbe being tested. The agar plate was divided into three parts to test three trials of a single concentration. The sample was allowed to be absorbed into the agar for ˜30 minutes. The plates were then incubated for 24 hours at 37° C. After incubation, the plates were examined to determine the compound concentration at which 99.9% killing was achieved.

[2] = tested on: MRSA (ATCC 43300); assay: Minimum bactericidal concentration (MBC) assay, MRSA; type: cell-based; settings: Staphylococcus aureus, MRSA
Procedure: as §1

[3] = tested on: S. aureus (ATCC 29213); assay: Broth microdilution MIC assay, S. aureus; settings: for MIC: Staphylococcus aureus, ATCC29213, read-out: MIC (bacterial growth inhibition), S. aureus; for higher efficacy than harmaline: antibacterial efficacy versus harmaline; for higher antibacterial activity than harmaline dimer without a substitution (GZ440/6): versus GZ440/6
Procedure: (§2) The concentration of compound required to visibly stop the growth of bacteria is known as minimum inhibitory concentration (MIC). Different concentrations of the compounds are tested for the exact same number of bacteria, and the growth is monitored with time.
(§3) Bacterial strains were purchased from the American Type Culture Collection (ATCC) for the studies.
(§4) The MIC assay procedure follows the guidelines set by the Clinical Laboratory Sciences Institute (CLSI).
(§5) To do this, bacteria were transferred from pure agar culture, aseptically transferred in 5 mL of Cation-Adjusted Mueller-Hinton Broth (CAMHB). The broth was incubated overnight at 35° C. to stationary phase to achieve a turbidity suspension. A spectrophotometer (SpectraMax ID5) was used to measure the turbidity (optical density—OD at 625 nm). The inoculum was prepared by adjusting the turbidity of overnight culture to 0.5 McFarland, which is equal to the defined number of bacteria 1×10^8 CFU/ml.
(§6) (b) Compound Dilution: All compounds used in the study were dissolved in sterile ultra-pure DMSO (VWR International, PA, USA) and maintained at −80° C. Stock solution of the compound was freshly prepared the day of use or is prepared from a frozen stock solution stored at −80° C. […] The compound solution was prepared at a desired concentration in DMSO, and 1/10 dilution was performed in a sterile CAMHB medium. This 10-fold dilution of stock solution was used for a 2-fold serial dilution in a 96-well plate to observe an inhibitory effect of the compound on bacterial growth. 100 μL of diluted drug solution was transferred to a first column of the 96-well plate. 50 μL of sterile CAMHB was transferred to each well from well 2 to well 12. Next, 50 μL was removed from well 1 and added to well 2. The contents from well 2 were mixed by pipetting up and down. Next, 50 µL were removed from well 2 and added to well 3. This process was continued till well 11 is reached. 50 μL was discarded from the well 11. Each compound concentration was tested in triplicate.
(§7) (c) Inoculation of 96-well plate: The same number of bacteria (1×10^5 CFU/mL) were prepared after 150-fold dilution of 0.5 McFarland inoculum and used to add in the wells of different drug concentrations. 50 μL of working inoculum was carefully added to each well, except the sterility well 12. Mixing is performed by gently flushing the inoculum in and out of the pipette tip four or five times, avoiding splashing and bubble formation.
(§8) (d) Incubation: Plates were incubated at 35° C. for 24 hours without shaking or agitation.
(§9) (e) Determination of MIC: After 18-24 hours of incubation, the plates were read for MIC. SpectraMax iD5 microplate reader was used to measure turbidity at different time points. Turbidity (OD) increases as the bacteria grow over time.

[4] = tested on: S. aureus (ATCC 29213); assay: Minimum bactericidal concentration (MBC) assay, S. aureus; type: cell-based; settings: Staphylococcus aureus, S. aureus
Procedure: as §1

[5] = tested on: P. aeruginosa (ATCC 10145); assay: Broth microdilution MIC assay, P. aeruginosa
Procedure: as §2, §3, §4, §5
(b) Compound Dilution: All compounds used in the study were dissolved in sterile ultra-pure DMSO (VWR International, PA, USA) and maintained at −80° C. […]
(e) Determination of MIC: After 18-24 hours of incubation, the plates were read for MIC. SpectraMax iD5 microplate reader was used to measure turbidity at different time points. […]

[6] = tested on: E. faecalis (ATCC 29212); assay: Broth microdilution MIC assay, E. faecalis; settings: Enterococcus faecalis, ATCC29212, read-out: MIC (bacterial growth inhibition)
Procedure: as §2, §3, §4, §5, §6, §7, §8, §9

[7] = tested on: gram positive and negative bacteria; assay: Antibacterial testing against gram positive and negative bacteria; type: cell-based
Procedure: In addition to the harmaline dimers compounds, other bicyclic indole compounds (203, 233, 476/6 and 504/6,) were also tested against gram positive and negative bacteria. Particularly, the indole ethyl urea molecules 203, 233 and the tryptamide dimer molecules 476/6, 504/6, as shown below, were tested.

[8] = tested on: E. coli (ATCC 25922); assay: Broth microdilution MIC assay, E. coli; settings: E. coli
Procedure: as §2, §3, §4, §5, §6, §7, §8, §9

[9] = tested on: VREF (ATCC 51299); assay: Minimum bactericidal concentration (MBC) assay, VREF; type: cell-based, Enterococcus faecalis; settings: VREF; for MBC: Enterococcus faecalis, ATCC51299, read-out: MBC (bactericidal activity)
Procedure: as §1

[10] = tested on: engineered Salmonella typhimurium strain (umuC, β-galactosidase); settings: without S9 activation
From the text: The EBPI UMU-ChromoTest™ assay is used for the detection and quantification of genotoxicity of compounds and is based on the International Organization for Standardization protocol ISO 13829. The UMU-ChromoTest™ assay utilizes a native bacterial mechanism for the detection of compound genotoxicity. The bacteria used for the assay is an engineered Salmonella typhimurium strain developed to include a gene coding for the β-galactosidase (β-gal) enzyme tethered to the umuC, a damage response gene. DNA damage activates the SOS system to transcribe β-gal proportional to the level of SOS induction. The UMU-ChromoTest™ bacterial strain has modifications to increase sensitivity to genotoxins with (a) increased sensitivity for even limited damage, (b) modified outer membrane of the cell to increase permeability to exogenous materials, and (c) production of a color change on addition to chromogenic substrate (ONPG), which is a quantitative measure of genotoxic damage to bacterial DNA.
Rehydration of Dried Bacteria and Culture Growth: The bacteria were rehydrated and incubated at 37° C. for 16-18 hours. OD600 of the overnight culture should be 0.5 or at least above 0.1 at 600 nm.
Sample Preparation and Plate Setup: The dimer compounds were dissolved in DMSO. All dilution and controls were made in the solvent of 10% DMSO in sterile 0.85% saline. The pH of the compounds was adjusted to 7.0±0.2 before incubation with bacteria to facilitate bacterial growth and prevent degradation of ONPG later in the assay. The solutions of hydrochloric acid and sodium hydroxide were used to adjust pH with minimal addition volumes to prevent excessive sample dilution. Six samples were run at 4 dilutions at a time.
Preliminary Dilution of Bacteria: The overnight bacterial culture was diluted to 50% by performing a reinoculation with 5 mL of overnight growth and 5 mL of fresh Growth media. The reinoculated bacteria was inoculated for 1.5 hours at 37° C. The OD600 should be approximately 80% of the reading from overnight growth or slightly higher.
Preparation of Plate A: Distilled water (180 μL) was added to all wells, except for rows A to F, columns 1 to 3 and row H, columns 1 to 6. Rows A to F are used for 6 compounds per plate. The test compounds (360 μL) were added to the first three wells (three replicates) of the same microplate, such that wells 1-3 were a triplicate set of the highest concertation of test compound (360 μL). Wells 4-12 each contained 180 μL of distilled water. For dilution, half of the contents (180 μL) from wells 1-3 was transferred to wells 4-6 which makes a second triplicate set. For a third dilution, half of the contents from wells 4-6 were transferred to 7-9, and for the fourth triplicate set, half of the contents from wells 7-9 was transferred to 10-12. […]

[11] = tested on: MRSA: S. aureus resistant to methicillin and oxacillin (ATCC 43300); assay: Broth microdilution MIC assay, MRSA; settings: Staphylococcus aureus, ATCC43300|MRSA, read-out: MIC (bacterial growth inhibition)
Procedure: as §2, §3, §4, §5, §6, §7, §8, §9

[12] = tested on: VREF: E. faecalis resistant to vancomycin (ATCC 51299); assay: Broth microdilution MIC assay, VREF; settings: Enterococcus faecalis
Procedure: as §2, §3, §4, §5, §6, §7, §8, §9

[13] = Solubility in DMSO; type: physicochemical
[14] = tested on: SARS-CoV-2 isolate USA-WA1/2020 in Vero-E6 cells; assay: Virus plaque formation assay; type: cell-based
[15] = tested on: Vero-E6 cells; assay: CytoTox 96 Nonradioactive Cytotoxicity Assay (LDH release)
Procedure: Cytotoxicity was measured using Promega™ CytoTox 96™ Nonradioactive Cytotoxicity Assay (cat #G1780, Promega, Madison, WI, USA).
Cytotoxicity was measured using the Promega™ CytoTox 96™ Nonradioactive Cytotoxicity Assay kit (cat #G1780, Promega, Madison, WI, USA) in 50 μL reactions and 96-well format (cat #161093, Thermo Fisher Scientific, Waltham, MA, USA) according to the manufacturer's protocol, except we used 20 μL of 10× Lysis Solution per 100 μL of sample and incubated at 37° C. for 30 minutes to generate the maximum LDH release control. The assay was measured using a BioTeK Synergy™ HT plate reader (model #7091000, BioTek, Winooski, VT, USA) at an optical density of 490 nm (OD490). […] LLC-MK2 cells were assessed for cytotoxicity at 5 days, whereas Vero E6 and Calu-3 cells were assessed for cytotoxicity every 24 hours from 1-5 days. Percent cytotoxicity was calculated by dividing the experimental LDH release at OD490 b.

[16] = tested on: SARS-CoV-2; assay: RT-PCR quantitation of viral copy number; type: cell-based; settings: 120 hours after infection
[17] = ATCC29213, 24 h, read-out: MBC (kills bacteria)
[18] = ATCC29213, read-out: MBC (bactericidal activity)
[19] = ATCC51299, 24 h, read-out: MIC (bacterial growth inhibition)
[20] = ATCC51299, 48 h, read-out: MIC (bacterial growth inhibition)
[21] = ATCC51299, read-out: MIC (bacterial growth inhibition)

COc1ccc2c3c([nH]c2c1)C(CC(CC1=NCCc2c1[nH]c1cc(OC)ccc21)c1c[nH]cn1)=NCC3 [1,1′-(2-(1H-imidazol-4-yl)propane-1,3-diyl)bis(7-methoxy-4,9-dihydro-3Hpyrido[3,4-b]indole)]
MBC (kills bacteria) [1]: 101.2 µg/mL (≈ 200 µM) | MBC [1]: 200 µM (≈ 101 µg/mL) | MBC ([2]; read-out: MBC): 63.3 µg/mL | MBC ([2]; read-out: MRSA-MBC): 125 µM | MIC ([3]; time not given): 50.6 µg/mL | higher efficacy than harmaline [3]: ~15 fold | higher antibacterial activity than harmaline dimer without a substitution (GZ440/6) [3]: 1.75 fold | MBC [4, 17]: 101 µg/mL | MBC [4, 18]: 200 µM | MIC (bacterial growth inhibition) [5]: no inhibition was observed | MIC [6]: 50.6 µg/mL (≈ 99.9 µM) | bacteriostatic/bactericidal activity [7]: show bacteriostatic and bactericidal activity | MIC (bacterial growth inhibition) [8]: no inhibition was observed | MBC [9]: > 127 µg/mL | genotoxic concentration (not genotoxic up to / toxicity above) [10]: above 85 μM | MIC ([11]; 24 h): 15.8 µg/mL (≈ 31.2 µM) | MIC ([11]; 90 h): 31.7 µg/mL (≈ 62.5 µM) | MIC [12, 19]: 63.3 µg/mL (≈ 125 µM) | MIC [12, 20]: 127 µg/mL (≈ 250 µM) | MIC [12, 21]: > 127 µg/mL | solubility in DMSO (time to dissolve) [13]: 30 to 40 min

COc1ccc2c3c([nH]c2c1)C(CC(CC1=NCCc2c1[nH]c1cc(OC)ccc21)c1cccnc1)=NCC3 [GK517.3, 1,1′-(2-(pyridin-3-yl)propane-1,3-diyl)bis(7-methoxy-4,9-dihydro-3H-pyrido[3,4-b]indole)]
MBC (kills bacteria) [1]: 103.5 µg/mL (≈ 200 µM) | MBC [1]: 200 µM (≈ 104 µg/mL) | MBC ([2]; read-out: MBC): 32.4 µg/mL | MBC ([2]; read-out: MRSA-MBC): 62.5 µM | MIC ([3]; time not given): 51.7 µg/mL | higher efficacy than harmaline [3]: ~15 fold | higher antibacterial activity than harmaline dimer without a substitution (GZ440/6) [3]: 1.75 fold | MBC [4, 17]: 104 µg/mL | MBC [4, 18]: 200 µM | MIC (bacterial growth inhibition) [5]: no inhibition was observed | MIC [6]: 51.7 µg/mL (≈ 99.9 µM) | bacteriostatic/bactericidal activity [7]: show bacteriostatic and bactericidal activity | MIC (bacterial growth inhibition) [8]: no inhibition was observed | MBC [9]: 64.7 µg/mL (≈ 125 µM) | MIC ([11]; 24 h): 8 µg/mL (≈ 15.5 µM) | MIC ([11]; 90 h): 16.2 µg/mL (≈ 31.3 µM) | MIC [12, 19]: 32.4 µg/mL (≈ 62.5 µM) | MIC ([12]; ATCC51299, 90 h, read-out: MIC (bacterial growth inhibition)): 64.7 µg/mL (≈ 125 µM) | solubility in DMSO (time to dissolve) [13]: 10 to 15 min

COc1ccc2c3c([nH]c2c1)C(CCCC1=NCCc2c1[nH]c1cc(OC)ccc21)=NCC3 [GZ440/6]
MBC ([2]; read-out: MBC): 110 µg/mL | MBC ([2]; read-out: MRSA-MBC): 250 µM | MIC [3]: 200 µM | MIC ([3]; time not given): 88 µg/mL | inhibition of plaque formation ([14]; 2.0, 5.0 and 10.0 μM, CoV-2 in Vero-E6 cells at 120 h after infection): negligible inhibition | inhibition of plaque formation ([14]; at 20 μM and above): inhibition of plaque formation was significant | cytotoxicity ([15]; 20 μM and 40 μM): no significant cytotoxicity | cytotoxicity ([15]; Vero-E6 cells, 2.0 μM, 5.0 μM and 10.0 μM): negligible cytotoxicity | MIC [6]: 88 µg/mL and 200 µM | bacteriostatic/bactericidal activity [7]: show bacteriostatic and bactericidal activity | viral load (viral RNA levels) ([16]; higher concentrations (20 and 40 μM)): decreased viral load | viral load (viral RNA levels) ([16]; lower concentrations): not in lower concentrations | MBC (bactericidal activity) [9]: No bactericidal action was observed | MIC ([11]; 24 h): 27.5 µg/mL (≈ 62.5 µM) | MIC ([11]; 90 h): 55 µg/mL (≈ 125 µM) | MIC [12, 19]: 55 µg/mL (≈ 125 µM) | MIC [12, 20]: 110 µg/mL (≈ 250 µM) | MIC [12, 21]: > 110 µg/mL
